Measurements reported in patent US10759796B2, “CXCR4 inhibitors and uses thereof” (X4 Pharmaceuticals, Inc., priority 2016, dated 2020).

Experiments:
[1] = biological target: CXCR-4 transfected U87 cell line (U87.CXCR4) (Homo sapiens (Human), UniProt P61073); experiment: Intracellular CXCL-12-induced calcium mobilization assay (FLIPR); assay type: cell-based; settings: U87.CXCR4 cells, CXCL-12 25-50 ng/mL; read-out: IC50 CXCL-12 Ca2+ flux U87.CXCR4+
Experimental: Example 28: REGA Screening Assay
Intracellular CXCL-12-Induced Calcium Mobilization Assay
Intracellular calcium mobilization induced by chemokines or chemokine-derived peptides were evaluated using a calcium responsive fluorescent probe and a FLIPR system. The CXCR-4 transfected U87 cell line (U87.CXCR4) cells were seeded in gelatine-coated black-wall 96-well plates at 20,000 cells per well and incubated for 12 hours. Cells were then loaded with the fluorescent calcium probe Fluo-2 acetoxymethyl at 4 μM final concentration in assay buffer (Hanks' balanced salt solution with 20 mM HEPES buffer and 0.2% bovine serum albumin, pH 7.4) for 45 min at 37° C. The intracellular calcium mobilization induced by the CXCL-12 (25-50 ng/mL) was then measured at 37° C. by monitoring the fluorescence as a function of time in all the wells simultaneously using a fluorometric imaging plate reader (FLIPR Tetra, Molecular Devices).

[2] = biological target: Jurkat cells expressing CXCR4 (Homo sapiens (Human), UniProt P61073); experiment: Chemokine (CXCL12-AF647) binding inhibition assay; settings: CXCL12-AF647 25 ng/mL, read-out: IC50 CXCL-12 binding Jurkat
Experimental: Chemokine (CXCL12-AF647) Binding Inhibition Assay
Jurkat cells expressing CXCR4 were washed once with assay buffer (Hanks' balanced salt solution with 20 mM HEPES buffer and 0.2% bovine serum albumin, pH 7.4) and then incubated for 15 min at room temperature with the test compounds diluted in assay buffer at dose-dependent concentrations. Subsequently, CXCL12-AF647 (25 ng/mL) was added to the compound-incubated cells. The cells were incubated for 30 min at room temperature. Thereafter, the cells were washed twice in assay buffer, fixed in 1% paraformaldehyde in PBS, and analyzed on the FL4 channel of a FACSCalibur flow cytometer equipped with a 635-nm red diode laser (Becton Dickinson, San Jose, Calif., USA).
The percentages of inhibition of CXCL12-AF647 binding were calculated according to the formula: [1−((MFI−MFINC)/(MFIPC−MFINC))]×100 where MFI is the mean fluorescence intensity of the cells incubated with CXCL12-AF647 in the presence of the inhibitor, MFINC is the mean fluorescence intensity measured in the negative control (i.e., autofluorescence of unlabeled cells), and MFIPC is the mean fluorescence intensity of the positive control (i.e., cells exposed to CXCL12-AF647 alone).

in vitro = settings: human, Caco-2, pH 7.4
Experimental: Example 28: Caco-2 Permeability Assay
The goal of this assay was to evaluate the intestinal absorption potential of drug candidates using Caco-2 cell lines.
1. Prewarm Prewarm HBSS Buffer in 37° C. water bath
2. Sonicate Take compounds from −20° C., sonicate for a few minutes (no less than 1 minute)
HBSS buffer with 0.3% DMSO and 5 μM LY: add 150 μL DMSO and 50 μL LY (5 mM) into 50 ml HBSS buffer (pH 7.4).
HBSS buffer with 0.1% DMSO and 5 μM LY: add 50 μL DMSO and 50 μL LY (5 mM) into 50 mL HBSS buffer (pH 7.4).
HBSS buffer with 0.3% DMSO: add 150 μL DMSO into 50 ml HBSS buffer (pH 7.4).
HBSS buffer with 0.1% DMSO: add 50 μL DMSO into 50 ml HBSS buffer (pH 7.4).
Receiver Solution Buffer:
Prepare HBSS buffer with 0.4% DMSO: add 200 μL DMSO into 50 ml HBSS buffer (pH 7.4).
Prepare HBSS buffer with 0.4% DMSO and 5 μM LY: add 200 μL DMSO and 50 μL LY (5 mM) into 50 ml HBSS buffer (pH 7.4).
4. Measure TEER Take cell culture plate out of incubator, wash the cell monolayers with HBSS buffer, and then measure TEER values at Rm temperature. 5. Centrifuge Centrifuge the compound solution (from step 3) at 4000 rpm for 5 min before loading to donor chambers. 6. Dosing Add solution based on the volumes listed in the following table (make sure to take extra 100 μL of donor sample for TO as Backup).
7. Apical LYT0 Samples To determine LY concentration in the apical chember, take 100 μL sample from apical chambers into an opaque plate for LYT0. 8. Prewarm Prewarm apical and basolateral plates at 37° C. for about 5 min, then begin transport by placing the apical plate onto basolateral plate. 9. Incubation Keep the plates in incubator at 37° C. for 90 min. 10. Standard Curve Preparation
For 300 μM compound solution, add 6 μL of compound stock solution into 192 μL of MeOH/H2O (1:1).
Prepare Working Solution in MeOH/H2O (1:1)
3 μL (20×)+57 μL of 0.4% DMSO HBSS+60 μL ACN with IS (Osalmid or Imipramine) - - - 120 μL (1×)
11. Transport Termination Separate the apical plate from the basolateral plate after 90-min incubation.
12. Measure LY Take 100 μL samples from basolateral plate to an opaque plate as LYT90.
13. Measure LY concentrations for LYT0 and LYT90 by Fluorometer (at excitation of 485 nm/emission of 535 nm).
Study details: Test concentration 10 μM
Test systems: Caco-2/HBSS solution
Incubation conditions: 0, 90 min at 37° C.
Sample size: Duplicates (n=2)
Bioanalytical method: LC-MS/MS
For Millicell-24 Cell Culture Plates: surface area of the membrane=0.7 cm^2, VA=0.8 mL (A-to-B) or 0.4 mL (B-to-A)
1. Papp values were calculated based on calculated concentrations.
The compound numbers correspond to the compound numbers in Table 1.

Sequence of Jurkat cells expressing CXCR4 (P61073 whole entry): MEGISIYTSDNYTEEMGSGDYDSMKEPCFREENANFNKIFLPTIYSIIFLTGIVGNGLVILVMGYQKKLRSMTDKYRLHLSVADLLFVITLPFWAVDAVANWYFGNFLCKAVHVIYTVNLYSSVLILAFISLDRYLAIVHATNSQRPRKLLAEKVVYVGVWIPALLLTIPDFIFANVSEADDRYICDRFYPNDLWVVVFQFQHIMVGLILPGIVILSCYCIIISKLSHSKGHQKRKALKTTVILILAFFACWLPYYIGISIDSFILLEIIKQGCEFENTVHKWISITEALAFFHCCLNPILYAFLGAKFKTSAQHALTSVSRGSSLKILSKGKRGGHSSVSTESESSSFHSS
Sequence of CXCR-4 transfected U87 cell line (U87.CXCR4) (P61073 whole entry): as above

| Compound | IC50 [1] | IC50 [2] | Papp A→B at 90 min, 10 μM (in vitro) | Papp B→A at 90 min, 10 μM (in vitro) | efflux ratio at 90 min, 10 μM (in vitro) |
| --- | --- | --- | --- | --- | --- |
| Cc1cccnc1[C@@H]1CCC[C@H](c2cn3c(N4CCN(C)CC4)c(F)ccc3n2)N1C [Compound I-106] | 0.01 to 100 nM | 0.01 to 100 nM | 0.1 to 10 ×10⁻⁶ cm/s | 10 to 30 ×10⁻⁶ cm/s | 0.1 to 10 |
| Cc1cccnc1[C@@H]1CCC[C@H](c2nc3cccc(N4CCN(C)CC4)n3c2Br)N1C [Compound I-17] | 0.01 to 100 nM | 0.01 to 100 nM | 0.1 to 10 ×10⁻⁶ cm/s | 0.1 to 10 ×10⁻⁶ cm/s | 0.1 to 10 |
| Cc1cccnc1[C@@H]1CCC[C@H](c2nc3cccc(N4CCN(C)CC4)n3c2COC(C)C)N1C [Compound I-48] | 100 to 1000 nM | 0.01 to 100 nM | 0.1 to 10 ×10⁻⁶ cm/s | 10 to 30 ×10⁻⁶ cm/s | 0.1 to 10 |
| CCN1CCN(c2cccc3nc([C@H]4CCC[C@@H](c5ncccc5Cl)N4C)c(Cl)n23)CC1 [Compound I-125] | 100 to 1000 nM | 0.01 to 100 nM | 0.1 to 10 ×10⁻⁶ cm/s | 0.1 to 10 ×10⁻⁶ cm/s | 0.1 to 10 |
| CO[C@@H](c1c([C@H]2CCC[C@@H](c3ncccc3C)N2C)nc2ccccn12)C1CCN(C)CC1 [Compound I-105] | ≥ 1000 nM | 100 to 1000 nM | 0.1 to 10 ×10⁻⁶ cm/s | 10 to 30 ×10⁻⁶ cm/s | > 30 |
| CN1CCN(c2cccc3nc([C@H]4CCC[C@@H](c5ncccc5C5CC5)N4)cn23)CC1 [Compound I-179] | 0.01 to 100 nM | 0.01 to 100 nM | 0.1 to 10 ×10⁻⁶ cm/s | 10 to 30 ×10⁻⁶ cm/s | 0.1 to 10 |
| Cc1cccnc1[C@@H]1CCC[C@H](c2cn3ccccc3n2)N1Cc1ccccc1-n1cccn1 [Compound I-16] | 0.01 to 100 nM | 0.01 to 100 nM | 10 to 30 ×10⁻⁶ cm/s | 10 to 30 ×10⁻⁶ cm/s | 0.1 to 10 |
| Cc1cccnc1[C@@H]1CCC[C@H](c2nc3ccccn3c2C=C2CCN(C)CC2)N1C [Compound I-83] | 100 to 1000 nM | 0.01 to 100 nM | 0.1 to 10 ×10⁻⁶ cm/s | 10 to 30 ×10⁻⁶ cm/s | 10 to 30 |
| Cc1cccnc1[C@@H]1CCC[C@H](c2cn3c(N4CCC(N(C)C)CC4)cccc3n2)N1C [Compound I-78] | 0.01 to 100 nM | 0.01 to 100 nM | 0.1 to 10 ×10⁻⁶ cm/s | 10 to 30 ×10⁻⁶ cm/s | > 30 |
| Cc1cccnc1[C@@H]1CCC[C@H](c2nc3ccccn3c2N2CCN(C)CC2)N1C [Compound I-152] | 0.01 to 100 nM | 0.01 to 100 nM | 0.1 to 10 ×10⁻⁶ cm/s | 10 to 30 ×10⁻⁶ cm/s | 0.1 to 10 |
| Cc1cccnc1[C@@H]1CCC[C@H](c2nc3cccc(N4CCN5CCCC5C4)n3c2Cl)N1C (stereo partly drawn) [Compound I-113] | 0.01 to 100 nM | 0.01 to 100 nM | 0.1 to 10 ×10⁻⁶ cm/s | 0.1 to 10 ×10⁻⁶ cm/s | 0.1 to 10 |
| CN1[C@@H](c2cn3c(N4CCNC5(CC5)C4)cccc3n2)CCC[C@H]1c1ncccc1Cl [Compound I-159] | 0.01 to 100 nM | 0.01 to 100 nM | 10 to 30 ×10⁻⁶ cm/s | 10 to 30 ×10⁻⁶ cm/s | 0.1 to 10 |
| Cc1cccnc1[C@@H]1CCC[C@H](c2cn3c(N4CCN(C)C(=O)C4)cccc3n2)N1 [Compound I-210] | ≥ 1000 nM | ≥ 1000 nM | 0.1 to 10 ×10⁻⁶ cm/s | 10 to 30 ×10⁻⁶ cm/s | > 30 |
| C#Cc1c([C@H]2CCC[C@@H](c3ncccc3C)N2C)nc2cccc(N3CCN(C)CC3)n12 [Compound I-89] | 0.01 to 100 nM | 0.01 to 100 nM | 0.1 to 10 ×10⁻⁶ cm/s | 0.1 to 10 ×10⁻⁶ cm/s | 0.1 to 10 |
| CN1CCN(c2cccc3nc([C@H]4CCC[C@@H](c5ncccc5Cl)N4)c(Cl)n23)CC1 [Compound I-147] | 100 to 1000 nM | 0.01 to 100 nM | 10 to 30 ×10⁻⁶ cm/s | 10 to 30 ×10⁻⁶ cm/s | 0.1 to 10 |
| CN1CCN(c2cccc3nc([C@H]4CCC[C@@H](c5ncccc5OC(F)(F)F)N4C)cn23)CC1 [Compound I-81] | 100 to 1000 nM | 0.01 to 100 nM | 10 to 30 ×10⁻⁶ cm/s | 10 to 30 ×10⁻⁶ cm/s | 0.1 to 10 |
| COc1cccnc1[C@@H]1CCC[C@H](c2cn3c(N4CCNC5(CC5)C4)cccc3n2)N1 [Compound I-172] | ≥ 1000 nM | ≥ 1000 nM | 0.1 to 10 ×10⁻⁶ cm/s | > 30 ×10⁻⁶ cm/s | > 30 |

Further lines, results first:

| IC50 [1] | IC50 [2] | Papp A→B at 90 min, 10 μM (in vitro) | Papp B→A at 90 min, 10 μM (in vitro) | efflux ratio at 90 min, 10 μM (in vitro) | Compound |
| --- | --- | --- | --- | --- | --- |
| 100 to 1000 nM | 0.01 to 100 nM | 0.1 to 10 ×10⁻⁶ cm/s | 0.1 to 10 ×10⁻⁶ cm/s | 0.1 to 10 | Cc1cccnc1[C@@H]1CCC[C@H](c2nc3cccc(N4CCN(C5CC5)CC4)n3c2Br)N1C [Compound I-67] |
| 0.01 to 100 nM | 0.01 to 100 nM | 0.1 to 10 ×10⁻⁶ cm/s | 10 to 30 ×10⁻⁶ cm/s | 0.1 to 10 | CCN1CCN(c2cccc3nc([C@H]4CCC[C@@H](c5ncccc5C)N4C)cn23)CC1 [Compound I-13] |
| ≥ 1000 nM | 100 to 1000 nM | 0.1 to 10 ×10⁻⁶ cm/s | > 30 ×10⁻⁶ cm/s | 10 to 30 | Cc1cccnc1[C@@H]1CCC[C@H](c2cn3c(N4CCN(C5COC5)CC4)cccc3n2)N1C [Compound I-52] |
| 0.01 to 100 nM | 0.01 to 100 nM | 0.1 to 10 ×10⁻⁶ cm/s | 0.1 to 10 ×10⁻⁶ cm/s | > 30 | Cc1cccnc1[C@@H]1CCC[C@H](c2nc3ccccn3c2[C@@H](O)C2CCN(C)CC2)N1C [Compound I-54] |
| 0.01 to 100 nM | 0.01 to 100 nM | 0.1 to 10 ×10⁻⁶ cm/s | 10 to 30 ×10⁻⁶ cm/s | 10 to 30 | CN(C)C1CCN(c2cccc3nc([C@H]4CCC[C@@H](c5ncccc5Cl)N4C)c(CO)n23)CC1 [Compound I-136] |
| 100 to 1000 nM | 0.01 to 100 nM | 0.1 to 10 ×10⁻⁶ cm/s | > 30 ×10⁻⁶ cm/s | 10 to 30 | COc1cccnc1[C@@H]1CCC[C@H](c2cn3c(N4CCN(C)CC4)cccc3n2)N1 [Compound I-191] |
| ≥ 1000 nM | 100 to 1000 nM | 10 to 30 ×10⁻⁶ cm/s | 10 to 30 ×10⁻⁶ cm/s | 0.1 to 10 | Clc1cccnc1[C@@H]1CCC[C@H](c2cn3c(N4CCNC5(CC5)C4)cccc3n2)N1 [Compound I-166] |
